Data as given in US9487515B2, “Compounds modulating c-fms and/or c-kit activity and uses therefor” (Plexxikon Inc., priority 2006, dated 2016).

Columns and labels:
MAP4K4 (HGK) = MAP4K4 (HGK) (Homo sapiens, UniProt O95819); test: HGK biochemical assay (AlphaScreen); settings: 10 μM ATP
Protocol: Substrate was 10 nM biotin-ERM (T567/T564/T558, Cell Signaling, Inc., cat#1344). MAP4K4 kinase was at 0.5 ng per sample.

c-kit = c-kit (Homo sapiens, UniProt P10721); test: c-kit assays of Examples 40 and 41 (AlphaScreen kinase assays at 10 and 100 μM ATP, 33P-ATP filter assay, M-07e SCF-stimulated proliferation and phosphorylation)
c-kit, sequence (P10721 with tags, fused parts or gaps): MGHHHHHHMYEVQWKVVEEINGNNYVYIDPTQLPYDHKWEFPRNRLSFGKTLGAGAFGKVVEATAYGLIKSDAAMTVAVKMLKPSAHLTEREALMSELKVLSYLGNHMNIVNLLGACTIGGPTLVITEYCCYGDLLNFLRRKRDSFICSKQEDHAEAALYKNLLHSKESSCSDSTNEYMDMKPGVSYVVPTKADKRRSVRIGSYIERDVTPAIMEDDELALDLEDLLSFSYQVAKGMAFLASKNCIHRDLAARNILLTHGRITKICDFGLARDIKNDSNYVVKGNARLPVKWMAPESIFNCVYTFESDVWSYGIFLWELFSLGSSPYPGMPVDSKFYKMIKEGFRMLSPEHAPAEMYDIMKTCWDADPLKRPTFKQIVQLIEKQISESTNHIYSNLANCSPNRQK

TrkA kinase = molecular target: T1, TrkA kinase (Homo sapiens, UniProt P04629); test: TrkA biochemical assay (AlphaScreen); settings: 100 μM ATP
T1 construct: purchased Upstate Biotech #14-571
T1 sequence (P04629 33-796): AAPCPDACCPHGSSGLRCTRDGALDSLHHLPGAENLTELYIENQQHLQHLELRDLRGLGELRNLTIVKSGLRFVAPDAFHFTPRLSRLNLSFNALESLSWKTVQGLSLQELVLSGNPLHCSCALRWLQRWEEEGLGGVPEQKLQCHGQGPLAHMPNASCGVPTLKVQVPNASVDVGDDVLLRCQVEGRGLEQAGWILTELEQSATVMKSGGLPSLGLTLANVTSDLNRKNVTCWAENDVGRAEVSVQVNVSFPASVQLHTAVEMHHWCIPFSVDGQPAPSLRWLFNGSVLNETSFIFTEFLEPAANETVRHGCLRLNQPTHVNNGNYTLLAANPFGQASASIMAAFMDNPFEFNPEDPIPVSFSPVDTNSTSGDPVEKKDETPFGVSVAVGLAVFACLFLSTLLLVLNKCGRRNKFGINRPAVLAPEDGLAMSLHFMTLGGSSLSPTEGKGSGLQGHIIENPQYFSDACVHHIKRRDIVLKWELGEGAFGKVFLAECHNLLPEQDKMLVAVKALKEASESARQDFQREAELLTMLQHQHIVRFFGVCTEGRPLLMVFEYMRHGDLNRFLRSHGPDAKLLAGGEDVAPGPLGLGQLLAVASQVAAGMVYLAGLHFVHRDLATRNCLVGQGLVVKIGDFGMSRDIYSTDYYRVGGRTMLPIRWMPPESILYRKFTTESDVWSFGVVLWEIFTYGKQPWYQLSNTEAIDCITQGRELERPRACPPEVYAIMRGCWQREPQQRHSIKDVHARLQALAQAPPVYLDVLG

[1] = system: cells with activating c-kit mutations; settings: mutations in the catalytic region; cited from earlier work

MAP4K4 (HGK), sequence (O95819 whole entry): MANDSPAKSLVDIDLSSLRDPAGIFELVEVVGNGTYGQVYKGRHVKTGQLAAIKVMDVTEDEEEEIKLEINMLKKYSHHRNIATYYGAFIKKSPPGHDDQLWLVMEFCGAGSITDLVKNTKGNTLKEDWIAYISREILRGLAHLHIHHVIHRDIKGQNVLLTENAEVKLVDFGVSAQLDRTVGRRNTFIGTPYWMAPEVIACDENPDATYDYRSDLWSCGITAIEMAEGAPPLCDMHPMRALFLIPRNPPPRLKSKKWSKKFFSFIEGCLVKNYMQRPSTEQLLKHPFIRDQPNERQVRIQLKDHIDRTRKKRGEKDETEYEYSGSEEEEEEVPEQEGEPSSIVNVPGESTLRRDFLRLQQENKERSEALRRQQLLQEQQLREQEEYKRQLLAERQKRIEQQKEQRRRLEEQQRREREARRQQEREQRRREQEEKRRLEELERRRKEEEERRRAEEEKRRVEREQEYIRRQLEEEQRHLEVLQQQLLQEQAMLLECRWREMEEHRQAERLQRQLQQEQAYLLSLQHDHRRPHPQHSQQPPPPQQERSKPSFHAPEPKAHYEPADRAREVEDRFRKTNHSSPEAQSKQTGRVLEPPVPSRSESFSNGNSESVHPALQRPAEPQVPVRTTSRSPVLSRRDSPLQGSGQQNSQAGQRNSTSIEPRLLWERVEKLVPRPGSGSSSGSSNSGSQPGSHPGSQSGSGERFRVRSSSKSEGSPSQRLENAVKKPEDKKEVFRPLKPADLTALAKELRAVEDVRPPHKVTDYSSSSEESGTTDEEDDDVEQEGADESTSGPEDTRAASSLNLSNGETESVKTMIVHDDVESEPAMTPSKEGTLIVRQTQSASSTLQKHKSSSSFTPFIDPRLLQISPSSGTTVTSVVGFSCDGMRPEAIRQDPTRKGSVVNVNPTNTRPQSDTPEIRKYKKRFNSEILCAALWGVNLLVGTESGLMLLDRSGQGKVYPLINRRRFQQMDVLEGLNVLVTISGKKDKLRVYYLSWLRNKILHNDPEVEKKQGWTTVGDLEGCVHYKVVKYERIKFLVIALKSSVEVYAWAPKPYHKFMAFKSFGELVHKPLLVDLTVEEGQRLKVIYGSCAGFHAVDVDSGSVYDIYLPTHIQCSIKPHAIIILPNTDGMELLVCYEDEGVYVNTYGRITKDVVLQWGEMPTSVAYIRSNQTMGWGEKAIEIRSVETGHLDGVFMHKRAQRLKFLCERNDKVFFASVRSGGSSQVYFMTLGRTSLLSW

| IC50 (MAP4K4 (HGK)) | IC50 (c-kit) | IC50 (TrkA kinase) | SMILES | inhibition of cells with c-kit mutations [1] |
| --- | --- | --- | --- | --- |
| < 1000 nM | < 1000 nM | – | Fc1ccc(CNc2nc(Cl)c(Cc3c[nH]c4ncccc34)s2)cc1 [P-0156, [4-Chloro-5-(1H-pyrrolo[2,3-b]pyridin-3-ylmethyl)-thiazol-2-yl]-(4-fluoro-benzyl)-amine] | – |
| – | < 1000 nM | < 1000 nM | Cc1nn(C(=O)NCCc2ccc(F)cc2)c(C)c1Cc1c[nH]c2ncc(Cl)cc12 [P-0157, 4-(5-Chloro-1H-pyrrolo[2,3-b]pyridin-3-ylmethyl)-3,5-dimethyl-pyrazole-1-carboxylic acid [2-(4-fluoro-phenyl)-ethyl]-amide] | – |
| – | < 1000 nM | < 1000 nM | Cc1cccc(CNc2nc(Cl)c(Cc3c[nH]c4ncccc34)s2)n1 [P-0171, [4-Chloro-5-(1H-pyrrolo[2,3-b]pyridin-3-ylmethyl)-thiazol-2-yl]-(6-methyl-pyridin-2-ylmethyl)-amine] | – |
| < 1000 nM | < 1000 nM | – | O=C(c1cnc(NCc2ccc(F)cc2)s1)c1c[nH]c2ncccc12 [P-0177, [2-(4-fluoro-benzylamino)-thiazol-5-yl]-(1H-pyrrolo[2,3-b]pyridin-3-yl)-methanone] | – |
| < 1000 nM | < 1000 nM | < 1000 nM | Cn1cc(-c2cnc3[nH]cc(Cc4ccc(NCc5ccc(C(F)(F)F)nc5)nc4Cl)c3c2)cn1 [P-0179, {6-Chloro-5-[5-(1-methyl-1H-pyrazol-4-yl)-1H-pyrrolo[2,3-b]pyridin-3-ylmethyl]-pyridin-2-yl}-(6-trifluoromethyl-pyridin-3-ylmethyl)-amine] | – |
| – | < 1000 nM | < 1000 nM | Cn1cc(-c2cnc3[nH]cc(Cc4cc(NCc5ccc(F)cc5)nn4C)c3c2)cn1 [P-0180, (4-Fluoro-benzyl)-{1-methyl-5-[5-(1-methyl-1H-pyrazol-4-yl)-1H-pyrrolo[2,3-b]pyridin-3-ylmethyl]-1H-pyrazol-3-yl}-amine] | – |
| < 1000 nM | < 1000 nM | – | Fc1ccc(CNc2nc(Cl)c(Cc3c[nH]c4ncc(Cl)cc34)s2)cc1 [P-0195, [4-Chloro-5-(5-chloro-1H-pyrrolo[2,3-b]pyridin-3-ylmethyl)-thiazol-2-yl]-(4-fluoro-benzyl)-amine] | – |
| < 1000 nM | < 1000 nM | – | Cc1nc(CNc2nc(Cl)c(Cc3c[nH]c4ncc(Cl)cc34)s2)cs1 [P-0201, [4-Chloro-5-(5-chloro-1H-pyrrolo[2,3-b]pyridin-3-ylmethyl)-thiazol-2-yl]-(2-methyl-thiazol-4-ylmethyl)-amine] | – |
| < 1000 nM | < 1000 nM | – | Clc1ccc(CNc2nc(Cl)c(Cc3c[nH]c4ncc(Cl)cc34)s2)nc1 [P-0203, [4-Chloro-5-(5-chloro-1H-pyrrolo[2,3-b]pyridin-3-ylmethyl)-thiazol-2-yl]-(5-chloro-pyridin-2-ylmethyl)-amine] | – |
| < 1000 nM | < 1000 nM | – | Fc1ccc(CNc2nc(Cl)c(Cc3c[nH]c4ncccc34)s2)nc1 [P-0206, [4-Chloro-5-(1H-pyrrolo[2,3-b]pyridin-3-ylmethyl)-thiazol-2-yl]-(5-fluoro-pyridin-2-ylmethyl)-amine] | – |
| < 1000 nM | – | – | COc1cncc(CNc2nc(Cl)c(Cc3c[nH]c4ncccc34)s2)c1 [P-0207, [4-Chloro-5-(1H-pyrrolo[2,3-b]pyridin-3-ylmethyl)-thiazol-2-yl]-(5-methoxy-pyridin-3-ylmethyl)-amine] | – |
| < 1000 nM | – | – | Fc1cncc(CNc2nc(Cl)c(Cc3c[nH]c4ncc(Cl)cc34)s2)c1 [P-0231, [4-Chloro-5-(5-chloro-1H-pyrrolo[2,3-b]pyridin-3-ylmethyl)-thiazol-2-yl]-(5-fluoro-pyridin-3-ylmethyl)-amine] | – |
| < 1000 nM | < 1000 nM | – | Fc1ccc(CNc2nc(Cl)c(Cc3c[nH]c4ncc(Cl)cc34)s2)nc1 [P-0240, [4-Chloro-5-(5-chloro-1H-pyrrolo[2,3-b]pyridin-3-ylmethyl)-thiazol-2-yl]-(5-fluoro-pyridin-2-ylmethyl)-amine] | – |
| < 1000 nM | – | – | COc1cncc(CNc2nc(Cl)c(Cc3c[nH]c4ncc(Cl)cc34)s2)c1 [P-0241, [4-Chloro-5-(5-chloro-1H-pyrrolo[2,3-b]pyridin-3-ylmethyl)-thiazol-2-yl]-(5-methoxy-pyridin-3-ylmethyl)-amine] | – |
| < 1000 nM | < 1000 nM | – | Cc1cccc(CNc2nc(Cl)c(Cc3c[nH]c4ncc(Cl)cc34)s2)n1 [P-0255, [4-Chloro-5-(5-chloro-1H-pyrrolo[2,3-b]pyridin-3-ylmethyl)-thiazol-2-yl]-(6-methyl-pyridin-2-ylmethyl)-amine] | – |
| – | < 1000 nM | < 1000 nM | FC(F)(F)Oc1ccccc1CNc1ncc(Cc2c[nH]c3ncccc23)cn1 [P-0303, [5-(1H-Pyrrolo[2,3-b]pyridin-3-ylmethyl)-pyrimidin-2-yl]-(2-trifluoromethoxy-benzyl)-amine] | – |
| < 1000 nM | < 1000 nM | – | Fc1cncc(CNc2ccc(Cc3c[nH]c4ncc(Cl)cc34)cn2)c1 [P-0324, [5-(5-chloro-1H-pyrrolo[2,3-b]pyridin-3-ylmethyl)-pyridin-2-yl]-(5-fluoro-pyridin-3-ylmethyl)-amine] | – |
| < 1000 nM | < 1000 nM | – | Cc1cnc2[nH]cc(Cc3ccc(NCc4c(F)cccc4F)nc3)c2c1 [P-0341, (2,6-Difluoro-benzyl)-[5-(5-methyl-1H-pyrrolo[2,3-b]pyridin-3-ylmethyl)-pyridin-2-yl]-amine] | – |
| – | < 1000 nM | – | Fc1cccc(CNc2ncc(Cc3c[nH]c4ncc(Cl)cc34)cn2)c1F [P-0395, [5-(5-Chloro-1H-pyrrolo[2,3-b]pyridin-3-ylmethyl)-pyrimidin-2-yl]-(2,3-difluoro-benzyl)-amine] | – |
| – | < 1000 nM | – | Fc1ccc(CNc2ncc(Cc3c[nH]c4ncc(Cl)cc34)cn2)c(Cl)c1 [P-0396, (2-Chloro-4-fluoro-benzyl)-[5-(5-chloro-1H-pyrrolo[2,3-b]pyridin-3-ylmethyl)-pyrimidin-2-yl]-amine] | – |
| – | < 1000 nM | – | FC(F)(F)Oc1ccccc1CNc1ncc(Cc2c[nH]c3ncc(Cl)cc23)cn1 [P-0402, [5-(5-Chloro-1H-pyrrolo[2,3-b]pyridin-3-ylmethyl)-pyrimidin-2-yl]-(2-trifluoromethoxy-benzyl)-amine] | – |
| < 1000 nM | – | – | O=C(c1ccc(NCc2ccccc2F)nc1)c1c[nH]c2ncccc12 [P-0403, [6-(2-fluoro-benzylamino)-pyridin-3-yl]-(1H-pyrrolo[2,3-b]pyridin-3-yl)-methanone] | – |
| – | < 1000 nM | – | O=C(c1ccc(NCc2ccccc2F)nc1)c1c[nH]c2ncc(Cl)cc12 [P-0404, (5-chloro-1H-pyrrolo[2,3-b]pyridin-3-yl)-[6-(2-fluoro-benzylamino)-pyridin-3-yl]-methanone] | – |
| – | < 1000 nM | – | Fc1ccc(Cl)c(CNc2ncc(Cc3c[nH]c4ncccc34)cn2)c1 [P-0407, (2-Chloro-5-fluoro-benzyl)-[5-(1H-pyrrolo[2,3-b]pyridin-3-ylmethyl)-pyrimidin-2-yl]-amine] | – |
| – | < 1000 nM | – | Fc1ccc(Cl)c(CNc2ncc(Cc3c[nH]c4ncc(Cl)cc34)cn2)c1 [P-0408, (2-Chloro-5-fluoro-benzyl)-[5-(5-chloro-1H-pyrrolo[2,3-b]pyridin-3-ylmethyl)-pyrimidin-2-yl]-amine] | – |
| – | < 1000 nM | – | FC(F)(F)COc1ccc(CNc2ccc(Cc3c[nH]c4ncc(Cl)cc34)cn2)cn1 [P-0409, [5-(5-Chloro-1H-pyrrolo[2,3-b]pyridin-3-ylmethyl)-pyridin-2-yl]-[6-(2,2,2-trifluoro-ethoxy)-pyridin-3-ylmethyl]-amine] | – |
| – | < 1000 nM | < 1000 nM | O=C(Nc1cccc(F)c1)Nc1ccc(Cc2c[nH]c3ncccc23)cn1 [P-0412, 1-(3-fluoro-phenyl)-3-[5-(1H-pyrrolo[2,3-b]pyridin-3-ylmethyl)-pyridin-2-yl]-urea] | – |
| – | – | – | Cc1ccc(NC(=O)c2ccc(CN3CCN(C)CC3)cc2)cc1Nc1nccc(-c2cccnc2)n1 [STI571] | did not inhibit the cells |
